Assay results from US4384118A, “4-(3-Iodopropargyloxy) pyrimidine derivatives” (SPOFA, spojene podniky pro zdravotnickou vyrobu, priority 1980, dated 1983).
≈ marks a conversion by molar mass, not a printed value. Where two headings read alike, the source gives them in different places. One block for each molecule: values may come before it.

How the values were obtained:
Format in all cases: cell-based
Aspergillus Niger = assay: Minimum inhibitory concentration vs Aspergillus Niger
From the text: (§1) For comparative purposes, three of the compounds of formula (1) were compared with Clotrimazole and Haloprogine, well known prior art antimycotic compounds. Comparisons of minimum inhibitory concentration in μg/ml. were made with respect to four strains of […].

Candida Alicans = assay: Minimum inhibitory concentration vs Candida Alicans; details: Table A, CA = Candida Alicans; read-out: Minimum Inhibitory Concentrations
From the text: as §1

[1] = tested on: Trichophyton Mentagrophytes; assay: Minimum inhibitory concentration vs Trichophyton Mentagrophytes; details: for MIC: Table A, TM = Trichophyton Mentagrophytes, read-out: Minimum Inhibitory Concentrations; for activity against Trichophyton mentagrophytes compared with known antimycotic agents: comparison with best antimycotic agents previously known; for activity against Trichophyton mentagrophytes (in words): same range as the minimum inhibitory concentrations in Aspergillus niger, 0.3 to 0.7 μg/ml
From the text: as §1

Sacharomyces Pastorianus = assay: Minimum inhibitory concentration vs Sacharomyces Pastorianus; details: Table A, SP = Sacharomyces Pastorianus; read-out: Minimum Inhibitory Concentrations
From the text: as §1

Microsporum Canis = assay: Minimum inhibitory concentration vs Microsporum Canis; details: Table B
Procedure: (§2) Additionally, certain compounds of the invention were evaluated with respect to other mold species. Thus, for example, 2-ethylthio-4-(3 iodopropargyloxy) pyrimidine was evaluated with respect to the species identified in Table B, below and the noted minimum inhibitory cencentrations determined: […]

Trichophyton rubrum = assay: Minimum inhibitory concentration vs Trichophyton rubrum; details: Table B
Procedure: as §2

Epidermophyton floccosum = assay: Minimum inhibitory concentration vs Epidermophyton floccosum; details: Table B
Procedure: as §2

Keratinomyces ajelloi = assay: Minimum inhibitory concentration vs Keratinomyces ajelloi; details: Table B
Procedure: as §2

[2] = tested on: Trichophyton schoenleinii; assay: Minimum inhibitory concentration vs Trichophyton schoenleinii; details: Table B
Procedure: as §2

Sporotrichum cejpii = assay: Minimum inhibitory concentration vs Sporotrichum cejpii; details: Table B
Procedure: as §2

Microsporum gypseum = assay: Minimum inhibitory concentration vs Microsporum gypseum; details: Nannizzia gypsea, Table B
Procedure: as §2

Trichophyton verrucosum = assay: Minimum inhibitory concentration vs Trichophyton verrucosum; details: Table B
Procedure: as §2

[3] = Aspergillus niger, read-out: minimum inhibitory concentration
[4] = Table A, AN = Aspergillus Niger, read-out: Minimum Inhibitory Concentrations

MIC (Aspergillus Niger; [3]): 0.01 µg/mL (≈ 0.026 µM)
SMILES: CSc1ncc(Br)c(OCC#CI)n1 [2-methylthio-5-bromo-4-(3-iodopropargyloxy) pyrimidine]

MIC (Candida Alicans): 1.2 µg/mL (≈ 3.32 µM)
MIC [1]: 0.6 µg/mL (≈ 1.66 µM)
SMILES: Clc1cc(Cl)c(OCC#CI)cc1Cl [Haloprogine, reference compound]

SMILES: COc1cnc(SC)nc1OCC#CI [2-methylthio-5-methoxy-4-(3-iodopropargyloxy) pyrimidine]
activity against Trichophyton mentagrophytes compared with known antimycotic agents [1]: comparable with that of the best antimycotic agents previously known
activity against Trichophyton mentagrophytes (in words) [1]: lies in the same range

MIC (Sacharomyces Pastorianus): 0.15 µg/mL (≈ 0.452 µM)
MIC (Aspergillus Niger; [4]): 0.3 µg/mL (≈ 0.903 µM)
MIC (Candida Alicans): 0.7 µg/mL (≈ 2.11 µM)
MIC [1]: 0.07 µg/mL (≈ 0.211 µM)
SMILES: C=CCSc1nccc(OCC#CI)n1 [Compound II, 2allylthio-4-(3-iodopropargyloxy) pyrimidine]

MIC (Microsporum Canis): 0.15 µg/mL (≈ 0.469 µM)
MIC (Trichophyton rubrum): 0.07 µg/mL (≈ 0.219 µM)
MIC (Epidermophyton floccosum): 0.3 µg/mL (≈ 0.937 µM)
MIC (Keratinomyces ajelloi): 0.3 µg/mL (≈ 0.937 µM)
MIC [2]: 0.03 µg/mL (≈ 0.0937 µM)
MIC (Sporotrichum cejpii): 0.3 µg/mL (≈ 0.937 µM)
MIC (Microsporum gypseum): 0.3 µg/mL (≈ 0.937 µM)
MIC (Trichophyton verrucosum): 0.15 µg/mL (≈ 0.469 µM)
SMILES: CCSc1nccc(OCC#CI)n1 [2-ethylthio-4-(3 iodopropargyloxy) pyrimidine]

SMILES: COc1cnc(N)nc1OCC#CI [2-amino-5-methoxy-4-(3-iodopropargyloxy) pyrimidine]
activity against Trichophyton mentagrophytes compared with known antimycotic agents [1]: comparable with that of the best antimycotic agents previously known
activity against Trichophyton mentagrophytes (in words) [1]: lies in the same range

MIC (Aspergillus Niger; [3]): 0.07 µg/mL (≈ 0.2 µM)
SMILES: CCOc1cnc(SC)nc1OCC#CI [2-methylthio-5-ethoxy-4-(3-iodopropargyloxy) pyrimidine]

MIC (Sacharomyces Pastorianus): 0.3 µg/mL (≈ 0.824 µM)
MIC (Aspergillus Niger; [4]): 0.01 µg/mL (≈ 0.0275 µM)
MIC (Candida Alicans): 3.1 µg/mL (≈ 8.51 µM)
MIC [1]: 0.07 µg/mL (≈ 0.192 µM)
SMILES: CCCSc1ncc(OC)c(OCC#CI)n1 [Compound I, 2 propylthio5-methoxy-4-(3 iodoprogargyloxy) pyrimidine]

SMILES: Clc1ccccc1C(c1ccccc1)(c1ccccc1)n1ccnc1 [Clotrimazole, reference compound]
MIC (Sacharomyces Pastorianus): 3.1 µg/mL (≈ 8.99 µM)
MIC (Aspergillus Niger; [4]): 3.1 µg/mL (≈ 8.99 µM)
MIC (Candida Alicans): 0.3 µg/mL (≈ 0.87 µM)
MIC [1]: 0.03 µg/mL (≈ 0.087 µM)

SMILES: CSc1nccc(OCC#CI)n1 [2-methylthio-4-(3-iodopropargyloxy) pyrimidine]
activity against Trichophyton mentagrophytes compared with known antimycotic agents [1]: comparable with that of the best antimycotic agents previously known
activity against Trichophyton mentagrophytes (in words) [1]: lies in the same range

MIC (Aspergillus Niger; [3]): 0.03 µg/mL (≈ 0.0857 µM)
SMILES: CCSc1ncc(OC)c(OCC#CI)n1 [2-ethylthio-5-methoxy-4-(3-iodopropargyloxy) pyrimidine]
